Data set [1] can be described thus: refractive index (Na D-line) (dimensionless). As to conditions: 293.15 K; 101.33 kPa; Liquid; Standard Abbe refractometry.
The conditions of data set [2]: Liquid; for mass density: 293.15 K, 101.33 kPa; for Normal boiling temperature: Distillation.

Each structure is given as a SMILES string. ± gives the expanded uncertainty stated by the source.

A word on the refractive index: it is the speed of light in vacuum divided by its phase velocity in the sample. In general, mass density refers to the mass of a sample divided by its volume.

For `CCOC(=O)CCC(=O)OCC` [diethyl butanedioate], the refractive index in data set [1] was found to be 1.42014 ± 0.0007. Also, in data set [2], the mass density turned out to be 1040.22 ± 0.5 kg/m3 and the Normal boiling temperature was determined as 217.7 ± 0.2 °C.
For `CCOC(=O)CCCC(=O)OCC` [diethyl glutarate] the same measures were 1.42414 ± 0.00078, 1022.04 ± 1.2 kg/m3 and 236.5 ± 0.2 °C.
For `CCOC(=O)CCCCC(=O)OCC` [diethyl hexanedioate], the refractive index in data set [1] is recorded as 1.42725 ± 0.0007. In addition, in data set [2], the mass density is listed as 1007.63 ± 0.41 kg/m3 and the Normal boiling temperature is 245.2 ± 0.2 °C.
On the same counts, the results for `CCC(=O)O` [propanoic acid] are 1.3808 ± 0.0007, 988.04 ± 0.41 kg/m3 and 141.4 ± 0.2 °C.

The values are drawn from the NIST ThermoML archive (doi:10.1016/j.jct.2007.03.004).
